Where two headings read alike, the source gives them in different places.
Tests used:
stromelysin = stromelysin (Homo sapiens, UniProt P08254); experiment: Inhibition of stromelysin: hydrolysis of substance P, semicontinuous HPLC-based assay; type: biochemical; details: for IC50: substrate substance P
[1] = target: rabbit bone proteoglycanase (Oryctolagus cuniculus, UniProt P28863); details: cited from earlier work
[2] = target: T1, human rheumatoid synovial collagenase (Homo sapiens, UniProt P03956); details: cited from earlier work
T1 sequence (P03956 100-469): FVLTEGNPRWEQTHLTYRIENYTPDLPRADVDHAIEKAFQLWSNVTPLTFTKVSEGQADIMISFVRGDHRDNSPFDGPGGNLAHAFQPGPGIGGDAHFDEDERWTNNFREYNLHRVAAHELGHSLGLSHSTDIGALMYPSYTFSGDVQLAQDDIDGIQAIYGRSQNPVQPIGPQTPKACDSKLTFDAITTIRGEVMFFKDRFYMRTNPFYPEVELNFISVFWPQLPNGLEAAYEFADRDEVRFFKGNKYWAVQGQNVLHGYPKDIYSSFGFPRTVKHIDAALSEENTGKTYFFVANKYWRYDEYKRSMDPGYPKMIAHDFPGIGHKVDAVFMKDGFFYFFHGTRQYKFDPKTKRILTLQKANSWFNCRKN

[3] = higher Rf isomer (diastereomer), read-out: IC50 ± S.E. Higher Rf isomer
[4] = lower Rf isomer (diastereomer), read-out: IC50 ± S.E. Lower Rf isomer

Sequence of stromelysin (P08254 100-477): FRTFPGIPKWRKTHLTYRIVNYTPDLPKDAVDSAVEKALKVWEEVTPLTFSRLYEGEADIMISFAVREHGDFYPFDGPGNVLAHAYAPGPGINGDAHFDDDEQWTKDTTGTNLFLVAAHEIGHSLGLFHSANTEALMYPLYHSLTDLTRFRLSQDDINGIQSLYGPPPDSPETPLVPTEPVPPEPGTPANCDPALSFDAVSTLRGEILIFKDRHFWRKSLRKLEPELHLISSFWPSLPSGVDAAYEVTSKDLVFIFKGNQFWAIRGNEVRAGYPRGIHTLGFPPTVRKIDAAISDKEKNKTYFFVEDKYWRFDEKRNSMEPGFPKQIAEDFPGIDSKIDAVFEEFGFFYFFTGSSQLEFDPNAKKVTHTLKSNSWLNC
Sequence of rabbit bone proteoglycanase (P28863 101-478): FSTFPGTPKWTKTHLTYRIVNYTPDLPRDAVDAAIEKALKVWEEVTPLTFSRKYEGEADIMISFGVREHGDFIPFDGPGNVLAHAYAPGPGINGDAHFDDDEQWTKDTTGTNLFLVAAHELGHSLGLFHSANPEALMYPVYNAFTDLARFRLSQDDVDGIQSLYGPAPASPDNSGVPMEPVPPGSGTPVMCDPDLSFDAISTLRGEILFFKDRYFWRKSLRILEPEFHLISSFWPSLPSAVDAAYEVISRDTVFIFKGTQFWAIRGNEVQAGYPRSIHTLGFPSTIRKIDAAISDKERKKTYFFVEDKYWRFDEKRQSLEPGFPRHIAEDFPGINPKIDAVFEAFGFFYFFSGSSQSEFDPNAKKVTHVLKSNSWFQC

| IC50 (stromelysin; [3]) [nM] | IC50 (stromelysin; [4]) [nM] | SMILES | further results |
| --- | --- | --- | --- |
| 1600 ± 500 | 490 ± 100 | CC(C)C[C@H](NC(=O)C(CS)CCc1ccccc1)C(=O)Nc1ccccc1 (stereo partly drawn) [Compound 1b, N-(2-Thiomethyl-4-phenylbutanoyl)-(L)-leucine, N-phenylamide] |  |
| 1100 ± 300 | 2200 ± 800 | O=C(N[C@@H](Cc1ccccc1)C(=O)Nc1ccccc1)C(CS)CCc1ccccc1 (stereo partly drawn) [Compound 1f, N-(2-Thiomethyl-4-phenylbutanoyl)-(L)-phenylalanine, N-phenylamide] |  |

The remaining lines, values behind:

| SMILES | IC50 (stromelysin; [3]) [nM] | IC50 (stromelysin; [4]) [nM] | further results |
| --- | --- | --- | --- |
| CC(C)C[C@H](NC(=O)C(CS)CCc1ccccc1)C(N)=O (stereo partly drawn) [Compound 1a, N-(2-Thiomethyl-4-phenylbutanoyl)-(L)-leucinamide] | 3300 ± 400 | 960 ± 100 |  |
| CC(C)C[C@H](NC(=O)C(CS)CCc1ccccc1)C(=O)NCc1ccccc1 (stereo partly drawn) [Compound 1c, N-(2-Thiomethyl-4-phenylbutanoyl)-(L)-leucine, N-benzylamide] | 7300 ± 3300 | 2500 ± 1200 |  |
| NC(=O)[C@H](Cc1ccccc1)NC(=O)C(CS)CCc1ccccc1 (stereo partly drawn) [Compound 1e, N-(2-Thiomethyl-4-phenylbutanoyl)-(L)-phenylalaninamide] | 3100 ± 500 | 1900 ± 600 |  |
| O=C(N[C@@H](Cc1ccccc1)C(=O)NCc1ccccc1)C(CS)CCc1ccccc1 (stereo partly drawn) [Compound 1g, N-(2-Thiomethyl-4-phenylbutanoyl)-(L)-phenylalanine, N-benzylamide] |  |  | % inh. Higher Rf isomer (stromelysin; higher Rf isomer, @ 1.4 μM): 63 % inh.; % inh. Lower Rf isomer (stromelysin; lower Rf isomer, @ 3.3 μM): 98 % inh. |
| O=C(O)CCNC(=O)[C@H](Cc1ccccc1)NC(=O)C(CS)CCc1ccccc1 (stereo partly drawn) [Compound 1h, N-(2-Thiomethyl-4-phenylbutanoyl)-(L)-phenylalanine-β-alanine] | 4100 ± 350 |  |  |
| CNC(=O)[C@H](Cc1ccc(OC)cc1)NC(=O)[C@H](CC(C)C)NC(CCNC(=O)OCc1ccccc1)C(=O)O (stereo partly drawn) [N-[3-(benzyloxycarbonyl)amino-1-carboxy-n-propyl]-L-leucyl-O-methyl-L-tyrosine, N-methylamide] |  |  | IC50 [1]: 500 nM; IC50 [2]: 800 nM |

Source: US5629343A, “N-(mercaptoacyl) peptidyl derivatives as antidegenerative agents” (Merck & Co., Inc., priority 1995, dated 1997)
